Experimental data taken from patent US9938261B2, “Heterocyclic compounds and methods of use thereof” (AMBIT BIOSCIENCES CORPORATION, priority 2011, dated 2018).

Tests used:
PDGFRβ = target: T1, PDGFRβ (Homo sapiens, UniProt P09619); assay: Competition binding assay, PDGFRβ Kd
T1 construct: made in house
Experimental: (§1) Competition binding assays used herein were developed, validated and performed as described in Fabian et al., Nature Biotechnology 2005, 23, 329-336. Kinases were produced as fusions to T7 phage (See, Fabian et al. or WO04/015142) or alternatively, the kinases were expressed in HEK-293 cells and subsequently tagged with DNA for PCR detection (See, WO08/005310). For the binding assays, streptavidin-coated magnetic beads were treated with biotinylated affinity ligands for 30 min at room temperature to generate affinity resins. The liganded beads were blocked with excess biotin and washed with blocking buffer (SeaBlock (Pierce), 1% BSA, 0.05% Tween 20, 1 mM DTT) to remove unbound ligand and to reduce non-specific binding. Binding reactions were assembled by combining kinase, liganded affinity beads, and test compounds in 1× binding buffer (20% SeaBlock, 0.17×PBS, 0.05% Tween 20, 6 mM DTT). Test compounds were prepared as 100× stocks in DMSO and diluted into the aqueous environment. Kds were determined using an eleven point threefold serial dilutions. DMSO or control compounds were was added to control assays lacking a test compound. Primary screen assays were performed in polypropylene 384-well plates in a final volume of 20-40 μL, while Kd determinations were performed in polystyrene 96-well plates in a final volume of 135 μL. The assay plates were incubated at room temperature with shaking for 1 hour to allow the binding reactions to reach equilibrium, and the affinity beads were washed extensively with wash buffer (1×PBS, 0.05% Tween 20) to remove unbound protein. The beads were then resuspended in elution buffer (1×PBS, 0.05% Tween […] non-biotinylated affinity ligand) and incubated at room temperature with shaking for 30 min. The kinase concentration in the eluates was measured by quantitative PCR.

FLT3 = target: T2, FLT3 (Homo sapiens, UniProt P36888); assay: Competition binding assay, FLT3 Kd
T2 construct: made in house
T2 sequence (P36888 27-993): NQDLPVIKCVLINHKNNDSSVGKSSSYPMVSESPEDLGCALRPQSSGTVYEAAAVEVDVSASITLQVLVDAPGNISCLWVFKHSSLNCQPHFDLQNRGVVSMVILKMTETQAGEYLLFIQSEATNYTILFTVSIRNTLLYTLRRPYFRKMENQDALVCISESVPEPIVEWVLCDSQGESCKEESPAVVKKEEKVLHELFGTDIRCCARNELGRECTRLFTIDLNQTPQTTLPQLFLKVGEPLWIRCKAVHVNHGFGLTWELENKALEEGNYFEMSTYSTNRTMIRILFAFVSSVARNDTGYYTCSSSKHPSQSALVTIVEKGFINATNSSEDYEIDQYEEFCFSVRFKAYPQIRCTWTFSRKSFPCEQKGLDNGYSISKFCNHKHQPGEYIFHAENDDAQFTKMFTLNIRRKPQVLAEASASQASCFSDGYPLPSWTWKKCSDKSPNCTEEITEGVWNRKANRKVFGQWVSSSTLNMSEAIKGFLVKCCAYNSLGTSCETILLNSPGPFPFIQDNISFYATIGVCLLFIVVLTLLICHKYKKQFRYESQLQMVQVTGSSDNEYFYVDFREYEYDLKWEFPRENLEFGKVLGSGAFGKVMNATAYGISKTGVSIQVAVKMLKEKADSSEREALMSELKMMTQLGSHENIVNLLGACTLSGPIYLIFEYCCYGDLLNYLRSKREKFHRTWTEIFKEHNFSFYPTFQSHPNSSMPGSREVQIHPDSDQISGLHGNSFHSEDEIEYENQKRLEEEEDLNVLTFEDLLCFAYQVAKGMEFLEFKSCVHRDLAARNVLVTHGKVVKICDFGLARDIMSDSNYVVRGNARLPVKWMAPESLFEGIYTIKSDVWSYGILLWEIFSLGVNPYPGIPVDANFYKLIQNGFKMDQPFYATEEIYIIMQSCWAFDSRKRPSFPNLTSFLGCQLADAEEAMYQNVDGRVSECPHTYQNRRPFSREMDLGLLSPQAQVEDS
Experimental: as §1

M-NFS-60 cells = assay: M-NFS-60 cell proliferation assay (Alamar Blue); type: cell-based, mouse; conditions: Mus musculus; 72 hours incubation, M-CSF 20 ng/mL; read-out: CSF1R M-NFS-60 CTB:IC50
Experimental: The compounds disclosed herein were tested in an M-NFS-60 cell proliferation assay to determine their cellular potency against CSF1R. M-NFS-60s are mouse monocytic cells that depend on the binding of the ligand M-CSF to its receptor, CSF1R, to proliferate. Inhibition of CSF1R kinase activity will cause reduced growth and/or cell death. This assay assesses the potency of compounds as CSF1R inhibitors by measuring the reduction of Alamar Blue reagent by viable cells.
On day one of the experiment, M-NFS-60 cells were maintained in RPMI complete medium (Omega Scientific) plus 10% FBS supplemented with 20 ng/mL of M-CSF (R&D Systems). 96-well TC-treated, flat bottom plates were seeded at 10,000 cell/well at a volume of 100 μL per well. The cells were cultured overnight at 37° C. under 5% CO2.
On day two, compounds were added to the cells at 9 different concentrations, with half-log intervals alongside a control reference compound serving as a positive control. Final DMSO concentration was kept at 0.5% for a final volume of 200 μL. The compounds were allowed to incubate with the cells for 72 hours at 37° C. under 5% CO2.
On day five of the experiment, 40 μl of Alamar Blue reagent was added to each well and allowed to incubate for 3 hours. Alamar Blue fluorescence was read using SoftMax Pro software at 560 nm (excitation) and 590 nm (emission). IC50s were generated as an average of duplicates and represents the concentration of test compound that achieves 50% inhibition of cellular proliferation compared to control.

CSF1R [1] = target: T3, CSF1R (Homo sapiens, UniProt P07333); assay: HEK293 CSF1R phosphorylation MSD assay; type: cell-based; parameters: expressed in transfected cells; host or cells: HEK293; conditions: 2 h compound, human M-CSF 50 ng/mL for 5 min; read-out: HEK293 pCSF1R M-CSF MSD:IC50
Experimental: The compounds disclosed herein were tested in a CSF1R phosphorylation assay to determine their cellular potency against CSF1R. A HEK293 cell line expressing CSF1R fused to FK506 binding protein (FKBP) as a molecular tag was generated. Inhibition of CSF1R kinase activity will prevent ligand-stimulated autophosphorylation of the CSF1R-FKBP in intact cells. Subsequent cell lysates are assayed in a sandwich ELISA employing the electrochemiluminescent Meso Scale Discovery (MSD) technology for the presence of the phosphorylated (p)CSF1R-FKBP. This assay determines the potency of compounds as CSF1R inhibitors by measuring the reduction in the amount of pCSF1R with increasing doses of compounds added to the cells prior to M-CSF stimulation.
On day one of the experiment, HEK293-CSF1R-FKPB cells, maintained in DMEM, with L-glutamine (Mediatech), 10% FBS, and 100 units/mL Penicillin/Streptomycin, were seeded at 50,000 cell/well in a volume of 100 μL per well in 96-well Cell Bind plates (Costar). The cells were cultured overnight at 37° C. under 5% CO2. To prepare the plates used in the MSD assay, a 330 nM biotin-FK506 (in TBS pH 7.2) solution was added at 30 μL per well to streptavidin-coated 96-well plates (MSD), and incubated overnight at room temperature, shaking at 500 rpm on an orbital shaker.
On day two, compounds diluted in DMSO were added to the cells in duplicate plates at 9 different concentrations with half-log intervals, plus DMSO only control, alongside a reference compound serving as a positive control. Final DMSO concentration was 0.5% in a volume of 200 μL per well. The compounds were allowed to incubate with the cells for 2 h at 37° C. under 5% CO2. At the end of the incubation, human M-CSF (R&D Systems) was added for 5 min to a final concentration of 50 ng/mL to stimulate CSF1R phosphorylation. Cells were lysed for 20 min, and the lysates were applied to the washed, FK506-coated MSD plates, and incubated overnight at 4° C. shaking at 500 rpm.
On day three, the MSD plates were washed, and the captured CSF1R-FKBP was assayed sequentially for phosphorylation using mouse anti-phosphotyrosine antibody (Millipore) and Sulfo-TAG goat anti-mouse IgG antibody (MSD), and detected on a Sector Imager 6000 instrument (MSD).
A single IC50 value for each compound was determined by averaging the IC50s of the duplicates calculated using Igor Pro 6 software, and represents the compound concentration that achieves a 50% inhibition of ligand-induced CSF1R phosphorylation compared to DMSO control.

CSF1R [2] = target: T3, CSF1R; assay: Competition binding assay, CSF1R Kd; parameters: made in house
Experimental: as §1

KIT = target: T4, KIT (Homo sapiens, UniProt P10721); assay: Competition binding assay, KIT Kd
T4 construct: made in house
Experimental: as §1

T4 sequence (P10721 26-976): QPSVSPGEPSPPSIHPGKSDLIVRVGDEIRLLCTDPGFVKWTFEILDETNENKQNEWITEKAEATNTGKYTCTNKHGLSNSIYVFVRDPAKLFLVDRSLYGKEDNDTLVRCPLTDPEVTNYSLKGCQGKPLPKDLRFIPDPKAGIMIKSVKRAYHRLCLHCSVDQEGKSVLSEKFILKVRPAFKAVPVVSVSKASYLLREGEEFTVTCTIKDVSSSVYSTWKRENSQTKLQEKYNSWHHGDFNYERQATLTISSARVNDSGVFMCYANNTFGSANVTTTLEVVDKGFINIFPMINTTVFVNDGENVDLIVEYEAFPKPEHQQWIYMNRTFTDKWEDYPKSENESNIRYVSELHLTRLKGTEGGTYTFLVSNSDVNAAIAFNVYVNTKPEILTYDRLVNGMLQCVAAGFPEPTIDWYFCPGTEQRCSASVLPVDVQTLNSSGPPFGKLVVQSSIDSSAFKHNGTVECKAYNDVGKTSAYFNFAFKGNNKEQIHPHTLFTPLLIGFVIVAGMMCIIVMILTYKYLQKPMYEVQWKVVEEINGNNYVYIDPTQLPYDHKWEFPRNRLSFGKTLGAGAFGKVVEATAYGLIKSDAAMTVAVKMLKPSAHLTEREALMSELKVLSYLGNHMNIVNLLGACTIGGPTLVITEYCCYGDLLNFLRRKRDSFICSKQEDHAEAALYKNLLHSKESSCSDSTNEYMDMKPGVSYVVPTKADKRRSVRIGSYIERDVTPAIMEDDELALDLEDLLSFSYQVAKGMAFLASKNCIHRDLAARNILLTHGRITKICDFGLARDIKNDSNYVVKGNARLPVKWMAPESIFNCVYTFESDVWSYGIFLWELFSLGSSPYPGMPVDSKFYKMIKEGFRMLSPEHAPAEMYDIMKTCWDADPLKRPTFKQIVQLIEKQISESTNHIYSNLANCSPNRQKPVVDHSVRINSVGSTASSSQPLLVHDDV
T1 sequence (P09619 33-1106): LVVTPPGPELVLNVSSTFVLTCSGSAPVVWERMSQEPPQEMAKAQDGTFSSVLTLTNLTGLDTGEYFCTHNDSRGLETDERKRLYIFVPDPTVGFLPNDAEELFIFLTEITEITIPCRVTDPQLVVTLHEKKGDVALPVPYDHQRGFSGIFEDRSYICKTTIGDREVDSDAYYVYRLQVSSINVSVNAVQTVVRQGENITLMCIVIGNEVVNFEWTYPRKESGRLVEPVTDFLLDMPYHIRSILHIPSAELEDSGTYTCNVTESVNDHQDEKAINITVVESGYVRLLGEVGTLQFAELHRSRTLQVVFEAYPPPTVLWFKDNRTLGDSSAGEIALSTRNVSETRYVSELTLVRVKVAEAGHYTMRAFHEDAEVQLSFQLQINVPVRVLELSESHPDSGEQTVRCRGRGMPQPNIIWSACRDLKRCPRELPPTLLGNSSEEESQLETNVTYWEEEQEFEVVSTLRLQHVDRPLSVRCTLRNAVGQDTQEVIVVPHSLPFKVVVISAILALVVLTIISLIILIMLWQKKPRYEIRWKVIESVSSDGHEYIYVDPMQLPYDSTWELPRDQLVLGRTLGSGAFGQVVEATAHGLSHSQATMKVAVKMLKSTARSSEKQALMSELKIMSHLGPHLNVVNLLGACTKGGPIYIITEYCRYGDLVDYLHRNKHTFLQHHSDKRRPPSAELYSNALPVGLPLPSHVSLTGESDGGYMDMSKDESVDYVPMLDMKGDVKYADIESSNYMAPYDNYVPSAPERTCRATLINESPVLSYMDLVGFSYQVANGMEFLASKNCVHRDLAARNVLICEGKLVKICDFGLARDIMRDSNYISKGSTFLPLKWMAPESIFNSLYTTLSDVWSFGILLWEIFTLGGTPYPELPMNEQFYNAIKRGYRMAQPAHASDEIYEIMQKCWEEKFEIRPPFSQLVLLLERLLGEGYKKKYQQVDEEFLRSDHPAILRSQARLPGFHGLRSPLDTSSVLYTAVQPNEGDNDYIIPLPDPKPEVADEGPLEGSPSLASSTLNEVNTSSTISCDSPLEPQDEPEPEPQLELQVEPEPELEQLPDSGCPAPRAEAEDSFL
T3 sequence (P07333 20-972): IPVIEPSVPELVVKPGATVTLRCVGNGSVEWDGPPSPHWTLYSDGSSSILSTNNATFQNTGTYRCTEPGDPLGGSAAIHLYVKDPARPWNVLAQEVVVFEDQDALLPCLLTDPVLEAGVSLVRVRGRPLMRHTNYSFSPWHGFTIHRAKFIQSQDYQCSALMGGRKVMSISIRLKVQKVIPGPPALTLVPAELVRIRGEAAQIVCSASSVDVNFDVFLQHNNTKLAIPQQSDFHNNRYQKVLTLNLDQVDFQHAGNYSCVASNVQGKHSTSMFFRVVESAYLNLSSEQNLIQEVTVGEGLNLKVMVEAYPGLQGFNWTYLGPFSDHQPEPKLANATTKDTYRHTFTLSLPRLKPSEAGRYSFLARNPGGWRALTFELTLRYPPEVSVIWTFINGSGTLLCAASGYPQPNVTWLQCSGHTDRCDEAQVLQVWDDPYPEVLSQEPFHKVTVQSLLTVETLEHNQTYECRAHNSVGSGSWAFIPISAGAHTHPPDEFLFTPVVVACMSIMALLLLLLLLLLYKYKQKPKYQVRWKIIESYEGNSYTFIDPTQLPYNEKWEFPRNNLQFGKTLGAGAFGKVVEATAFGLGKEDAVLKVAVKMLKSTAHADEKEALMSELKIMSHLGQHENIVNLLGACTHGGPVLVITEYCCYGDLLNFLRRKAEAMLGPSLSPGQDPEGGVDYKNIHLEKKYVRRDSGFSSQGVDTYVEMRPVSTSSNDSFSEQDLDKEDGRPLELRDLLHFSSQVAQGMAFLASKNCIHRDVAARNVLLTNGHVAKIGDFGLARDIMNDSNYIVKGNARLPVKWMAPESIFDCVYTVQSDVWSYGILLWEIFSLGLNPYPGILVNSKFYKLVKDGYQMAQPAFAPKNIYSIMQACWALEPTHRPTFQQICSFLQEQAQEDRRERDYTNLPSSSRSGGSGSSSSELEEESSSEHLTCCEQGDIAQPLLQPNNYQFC

SMILES	Kd (PDGFRβ) [nM]	Kd (FLT3) [nM]	IC50 (CSF1R [1]) [nM]	Kd (CSF1R [2]) [nM]	Kd (KIT) [nM]	IC50 (M-NFS-60 cells) [nM]
COc1cc2ncn(Cc3ccc4nc(N[C@@H]5c6ccccc6C[C@H]5O)sc4c3)c2cc1OC [Example 19, (1R,2R)-1-((6-((5,6-dimethoxy-1H-benzo[d]imidazol-1-yl)methyl)benzo[d]thiazol-2-yl)amino)-2,3-dihydro-1H-inden-2-ol]	50 to 500	1000 to 5000	50 to 200	≤ 5	100 to 500	50 to 400
COc1cc2ncn(Cc3ccc4nc(NC5CCOC5)sc4c3)c2cc1OC (racemic) [Example 25, (R,S)-6-((5,6-dimethoxy-1H-benzo[d]imidazol-1-yl)methyl)-N-(tetrahydrofuran-3-yl)benzo[d]thiazol-2-amine acetic acid]	> 2000	> 5000	> 500	> 50	> 2000	> 1500
O[C@@H]1Cc2ccccc2[C@H]1Nc1nc2ccc(Cn3cnc4cncnc43)cc2s1 [Example 95, (1R,2R)-1-((6-((9H-purin-9-yl)methyl)benzo[d]thiazol-2-yl)amino)-2,3-dihydro-1H-inden-2-ol]	≤ 50	> 5000	50 to 200	≤ 5	500 to 2000	50 to 400
COc1cc2ncn(Cc3ccc4nc(Nc5ccccc5)sc4c3)c2cc1OC [Example 22, 6-((5,6-dimethoxy-1H-benzo[d]imidazol-1-yl)methyl)-N-phenylbenzo[d]thiazol-2-amine]	> 2000	1000 to 5000	50 to 200	5 to 20	100 to 500	400 to 1500

Further lines, with some results ahead:

Kd (PDGFRβ) [nM]	Kd (FLT3) [nM]	IC50 (CSF1R [1]) [nM]	Kd (CSF1R [2]) [nM]	Kd (KIT) [nM]	SMILES	IC50 (M-NFS-60 cells) [nM]
50 to 500	1000 to 5000	≤ 50	≤ 5	≤ 100	O[C@@H]1CCCC[C@H]1Nc1nc2ccc(Cn3cnc4cc(F)cnc43)cc2s1 [Example 70, (1R,2R)-2-((6-((6-fluoro-3H-imidazo[4,5-b]pyridin-3-yl)methyl)benzo[d]thiazol-2-yl)amino)cyclohexanol]	50 to 400
≤ 50	200 to 1000	≤ 50	5 to 20	≤ 100	COC(=O)c1cnc2c(c1)ncn2Cc1ccc2nc(N[C@@H]3CCCC[C@H]3O)sc2c1 [Example 79, methyl 3-((2-(((1R,2R)-2-hydroxycyclohexyl)amino)benzo[d]thiazol-6-yl)methyl)-3H-imidazo[4,5-b]pyridine-6-carboxylate]	≤ 50
50 to 500	1000 to 5000	50 to 200	5 to 20	≤ 100	COc1ccc2ncn(Cc3ccc4nc(N[C@@H]5CCCC[C@H]5O)sc4c3)c2c1 [Example 67, (1R,2R)-2-((6-((6-methoxy-1H-benzo[d]imidazol-1-yl)methyl)benzo[d]thiazol-2-yl)amino)cyclohexanol]	50 to 400
≤ 50	200 to 1000	50 to 200	5 to 20	100 to 500	O[C@H]1CCCCC1Nc1nc2ccc(Cn3cnc4ccccc43)cc2s1 (stereo in doubt) [Example 7, (1S,2S)-2-((6-((1H-benzo[d]imidazol-1-yl)methyl)benzo[d]thiazol-2-yl)amino)cyclohexanol]	400 to 1500
50 to 500	200 to 1000	≤ 50	5 to 20	100 to 500	Cn1nnc(-c2cnc3c(c2)ncn3Cc2ccc3nc(N[C@@H]4CCCC[C@H]4O)sc3c2)n1 [Example 94, (1R,2R)-2-((6-((6-(2-methyl-2H-tetrazol-5-yl)-3H-imidazo[4,5-b]pyridin-3-yl)methyl)benzo[d]thiazol-2-yl)amino)cyclohexanol]	≤ 50
> 2000	1000 to 5000	200 to 500	> 50	> 2000	COC(c1ccc2nc(N[C@@H]3CCCC[C@H]3O)sc2c1)c1c[nH]c2ncccc12 (stereo partly drawn) [Example 12, (1R,2R)-2-((6-(methoxy(1H-pyrrolo[2,3-b]pyridin-3-yl)methyl)benzo[d]thiazol-2-yl)amino)cyclohexanol]	> 1500
